What all share (type): cell-based
In assay [1] the target is EP4 subtype of the human PGE2 receptor (Homo sapiens, UniProt P35408). Briefly: cAMP antagonism test on the human EP4 receptor (HTRF cAMP detection). As to conditions: selectivity towards hEP4, IC50 measured by cAMP antagonism test. Summed up: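 Cells expressing human EP4 preincubated 20 min at RT with compound (0.8 nM–16.5 μM), then stimulated with PGE2 (0.3 nM in 3× solution, with IBMX) 60 min at RT. After lysis, cAMP measured by HTRF competition (665/620 nm ratio); antagonism seen as rise in FRET signal.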
Sequence of EP4 subtype of the human PGE2 receptor (P35408 whole entry): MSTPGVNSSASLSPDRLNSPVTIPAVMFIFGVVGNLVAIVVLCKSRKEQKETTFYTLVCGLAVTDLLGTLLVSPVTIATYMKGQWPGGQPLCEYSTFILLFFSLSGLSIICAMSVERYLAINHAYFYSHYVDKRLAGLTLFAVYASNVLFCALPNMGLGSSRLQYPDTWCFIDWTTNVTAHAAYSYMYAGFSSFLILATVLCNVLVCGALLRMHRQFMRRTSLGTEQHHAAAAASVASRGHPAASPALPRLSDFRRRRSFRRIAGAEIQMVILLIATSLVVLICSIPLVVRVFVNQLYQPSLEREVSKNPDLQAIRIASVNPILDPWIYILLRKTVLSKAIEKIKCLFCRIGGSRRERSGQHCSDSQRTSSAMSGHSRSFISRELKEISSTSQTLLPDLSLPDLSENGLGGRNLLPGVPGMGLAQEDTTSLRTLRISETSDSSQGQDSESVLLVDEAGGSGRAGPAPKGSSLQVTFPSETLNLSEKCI
In general terms: In TR-FRET formats the signal depends on donor and acceptor labels being close together.

Assay [2] concerns the target EP2 subtype of the human PGE2 receptor (Homo sapiens, UniProt P43116). Briefly: cAMP antagonism test on the human EP2 receptor (HTRF cAMP detection). As to conditions: hEP2 receptor, read-out: Antagonism hEP2 IC50. The method, boiled down:
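Cells expressing human EP2 preincubated 20 min at RT with compound (0.8 nM–16.5 μM), then stimulated 60 min with PGE2 (3× solution 1.5 nM) in PBS-IBMX. After 20 min lysis, cAMP measured by competitive HTRF with cAMP-d2 and Eu cryptate anti-cAMP antibody (665/620 nm ratio).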

The target of assay [3] is T1, human PGD receptor (Homo sapiens, UniProt Q13258).
T1 sequence (Q13258 1-359): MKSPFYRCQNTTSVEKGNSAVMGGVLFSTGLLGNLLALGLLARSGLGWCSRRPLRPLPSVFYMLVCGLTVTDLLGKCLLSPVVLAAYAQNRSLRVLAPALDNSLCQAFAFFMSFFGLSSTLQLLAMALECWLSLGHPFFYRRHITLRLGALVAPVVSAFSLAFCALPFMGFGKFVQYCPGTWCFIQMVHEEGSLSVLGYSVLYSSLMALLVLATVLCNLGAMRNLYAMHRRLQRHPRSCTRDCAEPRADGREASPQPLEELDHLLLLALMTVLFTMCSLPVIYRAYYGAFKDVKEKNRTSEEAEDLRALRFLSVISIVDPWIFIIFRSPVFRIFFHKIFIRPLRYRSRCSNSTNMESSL
Briefly: cAMP antagonism test on the human prostaglandin D receptor (HTRF cAMP detection). As to conditions: selectivity towards hDP, IC50 measured by cAMP antagonism test. The method, boiled down:
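Cells pre-mixed with cAMP-d2 were preincubated with compound (0.8 nM–16.5 μM) for 20 min at RT, then stimulated with 3× PGD2 solution (6 nM, in PBS-IBMX) for 30 min at RT. After lysis (20 min), HTRF read at 665/620 nm; antagonism seen as rise in FRET ratio.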

Sequence of EP2 subtype of the human PGE2 receptor (P43116 whole entry): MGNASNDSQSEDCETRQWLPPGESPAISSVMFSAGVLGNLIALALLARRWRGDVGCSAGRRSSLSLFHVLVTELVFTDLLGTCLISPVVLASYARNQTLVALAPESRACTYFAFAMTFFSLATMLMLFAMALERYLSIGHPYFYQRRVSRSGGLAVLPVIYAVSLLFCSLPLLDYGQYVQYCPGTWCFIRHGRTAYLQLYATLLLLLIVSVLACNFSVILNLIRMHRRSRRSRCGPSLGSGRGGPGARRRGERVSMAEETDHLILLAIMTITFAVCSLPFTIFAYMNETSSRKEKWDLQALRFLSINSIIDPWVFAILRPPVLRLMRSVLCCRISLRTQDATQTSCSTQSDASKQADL

In general, IC50 refers to the midpoint of a concentration-inhibition curve. As to `Cc1cc2nn(CC3CN(C(=O)c4ccc(OC(F)(F)F)cc4)C3)cc2cc1C(=O)NCCOC(F)(F)F` [Example 196, 6-methyl-2-({1-[4-(trifluoromethoxy)benzoyl]azetidin-3-yl}methyl)-N-[2-(trifluoromethoxy)ethyl]-2H-indazol-5-carboxamide], in assay [1], the “Selectivity hEP2/hEP4” value is on record as “xxx (xxx > 100)”. In addition, in assay [2], the IC50 was 50.8 nM. In addition, the “Selectivity hEP2/hDP” value in assay [3] was “xxx (xxx > 100)”.
As for `Cc1cc2nn(CC3CCN(C(=O)c4cccc(C(F)(F)F)c4)CC3)cc2cc1C(=O)NCCN1CCOCC1` [Example 82, 6-methyl-N-(2-morph-olinoethyl)-2-({1-[3-(trifluoromethyl)-benzoyl]piperidin-4-yl}methyl)-2H-indazol-5-carboxamide], the “Selectivity hEP2/hEP4” value in assay [1] was “xx (xx: 10-100)”. Moreover, in assay [2], the half-inhibitory concentration (IC50) was found to be 218 nM. Besides, the “Selectivity hEP2/hDP” value in assay [3] is recorded as “xx (xx: 10-100)”.
Regarding `COc1c(C(=O)NCCN2CCC(F)(F)C2)ccc2nn(CC3CN(C(=O)c4ccc(Cl)cc4)C3)cc12` [Example 260, 2-{[1-(4-chlorobenzoyl)azetidin-3-yl]methyl}-N-[2-(3,3-difluoropyrrolidin-1-yl)ethyl]-4-methoxy-2H-indazol-5-carboxamide], the “Selectivity hEP2/hEP4” value in assay [1] is reported as “xxx (xxx > 100)”. Further, the IC50 in assay [2] was determined as 8.02 nM. Further, the “Selectivity hEP2/hDP” value in assay [3] is on record as “xxx (xxx > 100)”.
Consider `COCCNC(=O)c1ccc2nn(C[C@@H]3CCN(C(=O)c4ccc(Cl)cc4)C3)cc2c1C` [Example 217, 2-{[(R)-1-(4-chlorobenzoyl)pyrrolidin-3-yl]methyl}-N-(2-methoxyethyl)-4-methyl-2H-indazol-5-carboxamide], for which the “Selectivity hEP2/hEP4” value in assay [1] is reported as “xxx (xxx > 100)”. For the same compound, in assay [2], the 50% inhibitory concentration (IC50) amounted to 114 nM. Besides, in assay [3], the “Selectivity hEP2/hDP” value is listed as “xxx (xxx > 100)”.
Consider `Cc1c(C(=O)NCC(C)C)ccc2nn(CC3CCN(C(=O)c4ccc(Oc5ccc(C(F)(F)F)cc5)cc4)CC3)cc12` [Example 404, N-isobutyl-4-methyl-2-[(1-{4-[4-(trifluoromethyl)phenoxy]benzoyl}piperidin-4-yl)methyl]-2H-indazol-5-carboxamide], for which the “Selectivity hEP2/hEP4” value in assay [1] is given as “xxx (xxx > 100)”. Also, the 50% inhibitory concentration (IC50) in assay [2] was 20.2 nM. The “Selectivity hEP2/hDP” value in assay [3] was “xxx (xxx > 100)”.
For `COCCNC(=O)c1ccc2nn(CC3CN(C(=O)c4ccc(Oc5ccc(C(F)(F)F)cc5)cc4)C3)cc2c1C` [Example 125, N-(2-methoxyethyl)-4-methyl-2-[(1-{4-[4-(trifluoromethyl)phenoxy]benzoyl}azetidin-3-yl)methyl]-2H-indazol-5-carboxamide], the “Selectivity hEP2/hEP4” value in assay [1] is given as “xxx (xxx > 100)”. Besides, the half-inhibitory concentration (IC50) in assay [2] turned out to be 3.66 nM. Further, the “Selectivity hEP2/hDP” value in assay [3] is “xxx (xxx > 100)”.
As for `Cc1c(C(=O)NCC(F)(F)F)ccc2nn(CC3CCN(C(=O)c4ccc(Oc5ccc(F)cc5F)cc4)CC3)cc12` [Example 313, 2-({1-[4-(2,4-difluorophenoxy)benzoyl]piperidin-4-yl}methyl)-4-methyl-N-(2,2,2-trifluoroethyl)-2H-indazol-5-carboxamide], in assay [1], the “Selectivity hEP2/hEP4” value was “xxx (xxx > 100)”. Besides, the IC50 in assay [2] was found to be 89.4 nM. Moreover, the “Selectivity hEP2/hDP” value in assay [3] is given as “xxx (xxx > 100)”.
`Cc1c(C(=O)NCC(F)(F)F)ccc2nn(CC3CCN(C(=O)c4ccc(Oc5ccc(F)c(F)c5)cc4)CC3)cc12` [Example 314, 2-({1-[4-(3,4-difluorophenoxy)benzoyl]piperidin-4-yl}methyl)-4-methyl-N-(2,2,2-trifluoroethyl)-2H-indazol-5-carboxamide]: the “Selectivity hEP2/hEP4” value in assay [1] was “xxx (xxx > 100)”. Moreover, the half-maximal inhibitory concentration (IC50) in assay [2] was 27.8 nM. Also, the “Selectivity hEP2/hDP” value in assay [3] is on record as “xxx (xxx > 100)”.
For the compound `COCCNC(=O)c1ccc2nn(CC3CCN(C(=O)c4cc5ccccc5n4C)CC3)cc2c1C` [Example 29, N-(2-methoxyethyl)-4-methyl-2-({1-[(1-methyl-1H-indol-2-yl)carbonyl]-piperidin-4-yl}methyl)-2H-indazol-5-carboxamide], the “Selectivity hEP2/hEP4” value in assay [1] was “xxx (xxx > 100)”. In addition, the half-inhibitory concentration (IC50) in assay [2] worked out at 9.31 nM. The “Selectivity hEP2/hDP” value in assay [3] is recorded as “xxx (xxx > 100)”.
On to `COCCNC(=O)c1ccc2nn(CC3CN(C(=O)c4cn(C)c5ccccc45)C3)cc2c1C` [Example 282, N-(2-methoxyethyl)-4-methyl-2-({1-[(1-methyl-1H-indol-3-yl)carbonyl]azetidin-3-yl}methyl)-2H-indazol-5-carboxamide], for which the “Selectivity hEP2/hEP4” value in assay [1] is on record as “xxx (xxx > 100)”. Moreover, in assay [2], the IC50 came to 20.1 nM. For the same compound, in assay [3], the “Selectivity hEP2/hDP” value is on record as “xxx (xxx > 100)”.
Turning to `COCCNC(=O)c1ccc2nn(CC3CCN(C(=O)c4ccc(Oc5ccc(F)cc5)cc4)CC3)cc2c1C` [Example 3, 2-({1-[4-(4-fluorophenoxy)benzoyl]piperidin-4-yl}methyl)-N-(2-methoxyethyl)-4-methyl-2H-indazol-5-carboxamide], the “Selectivity hEP2/hEP4” value in assay [1] is on record as “xxx (xxx > 100)”. In assay [2], the IC50 stood at 4.91 nM. Besides, in assay [3], the “Selectivity hEP2/hDP” value is on record as “xxx (xxx > 100)”.
Regarding `COCCNC(=O)c1ccc2nn(CC3CCN(C(=O)c4ccc(-c5ccc(C(C)(C)C#N)cc5)cc4)CC3)cc2c1C` [Example 372, 2-[(1-{[4′-(1-cyano-1-methylethyl)biphenyl-4-yl]carbonyl}piperidin-4-yl)-methyl]-N-(2-methoxyethyl)-4-methyl-2H-indazol-5-carboxamide], in assay [1], the “Selectivity hEP2/hEP4” value was “xxx (xxx > 100)”. The IC50 in assay [2] worked out at 7.29 nM. Besides, in assay [3], the “Selectivity hEP2/hDP” value is listed as “xxx (xxx > 100)”.
Regarding `Cc1c(C(=O)NCC(F)(F)F)ccc2nn(CC3CCN(C(=O)c4ccc(-c5ccc(F)cn5)cc4)CC3)cc12` [Example 325, 2-({1-[4-(5-fluoropyridin-2-yl)benzoyl]piperidin-4-yl}methyl)-4-methyl-N-(2,2,2-trifluoroethyl)-2H-indazol-5-carboxamide], the “Selectivity hEP2/hEP4” value in assay [1] is “xx (xx: 10-100)”. Besides, the concentration for half-maximal inhibition (IC50) in assay [2] worked out at 321 nM. Besides, in assay [3], the “Selectivity hEP2/hDP” value is given as “xx (xx: 10-100)”.
Turning to `Cc1cc2nn(CC3CCN(C(=O)c4ccc(-c5ccc(F)cc5)cc4)CC3)cc2cc1C(=O)NCCN1CCOCC1` [Example 83, 2-({l-[(4′-fluoro-biphenyl-4-yl)-carbonyl]piperidin-4-yl}methyl)-6-methyl-N-(2-morpholino-ethyl)-2H-indazol-5-carboxamide], the “Selectivity hEP2/hEP4” value in assay [1] is reported as “xxx (xxx > 100)”. In addition, in assay [2], the IC50 was 32.6 nM. The “Selectivity hEP2/hDP” value in assay [3] is “xxx (xxx > 100)”.
Take `Cc1c(C(=O)NCCOC(C)(C)C)ccc2nn(CC3CCN(C(=O)c4ccc(-c5ccc(F)cc5)cc4)CC3)cc12` [Example 113, N-(2-tert-butoxyethyl)-2-({1-[(4′-fluoro-biphenyl-4-yl)-carbonyl]piperidin-4-yl}methyl)-4-methyl-2H-indazol-5-carboxamide]: the “Selectivity hEP2/hEP4” value in assay [1] is “xxx (xxx > 100)”. Moreover, the 50% inhibitory concentration (IC50) in assay [2] stood at 13.9 nM. For the same compound, in assay [3], the “Selectivity hEP2/hDP” value was “xxx (xxx > 100)”.
As for `CCc1c(C(=O)NCCOC)ccc2nn(CC3CCN(C(=O)c4ccc(Cl)cc4)CC3)cc12` [Example 212, 2-{[1-(4-chlorobenzoyl)piperidin-4-yl]methyl}-4-ethyl-N-(2-methoxyethyl)-2H-indazol-5-carboxamide], the “Selectivity hEP2/hEP4” value in assay [1] is listed as “xxx (xxx > 100)”. Further, in assay [2], the IC50 came to 106 nM. The “Selectivity hEP2/hDP” value in assay [3] is given as “xxx (xxx > 100)”.
